Test [1] concerns ocular normotensive human patients with diabetic eye disease. The experiment in a line: Phase 2 trial: IOP after subcutaneous Compound 1 alone or with intravitreal ranibizumab, diabetic macular edema. In kind it is in vivo. To be noted: for Week 4 subject-level IOP change from BL, mean (SD) / Week 4 subject-level IOP, mean (SD) / Week 8 subject-level IOP change from BL, mean (SD) / Week 8 subject-level IOP, mean (SD) / Week 12 subject-level IOP change from BL, mean (SD) / Week 12 subject-level IOP, mean (SD): average of study eye and fellow eye. The method, then:
IOP in patients were measured using a double-masked, parallel-group designed to assess the effects of subcutaneous (SC) Compound 1 (sodium salt) alone, or as an adjunct to intravitreal ranibizumab trial. 144 human subjects with diabetic retinopathy complicated by center-involved diabetic macular edema (DME) were randomized to 3 months of one of 3 treatments: 1) Compound 1 (15 mg) SC twice daily (BID) plus sham monthly intravitreal injection (IVT); 2) Compound 1 SC BID plus ranibizumab (0.3 mg) monthly IVT; and 3) Placebo SC BID+ranibizumab IVT. At baseline, mean age was 61.3±1.3 years; 59% of subjects were male; 82.6% had Type 2 diabetes; mean HBA1c was 7.5%±1.3%; mean best corrected visual acuity was 60.2 ETDRS letters (Snellen 20/63); and mean IOP was 15.7 mmHg±3.4. Ophthalmic safety assessments were performed at baseline and monthly during the 3-month treatment period including a single IOP measurement by applanation tonometry in both the study eye and the fellow eye at each time point. By protocol, all patients had baseline IOP<24 mmHg (ocular normotensive).
In the pre-specified safety analysis, change from baseline IOP was analyzed using a t-test (null hypothesis 0 change from baseline). The level of significance was set at 0.05. A post hoc analysis of the subject level IOP measure was the change from baseline in the average over both eyes within a subject for each timepoint. Statistical testing of each timepoint was completed using ANCOVA with baseline IOP (averaged over both eyes within a subject) as covariate. Additionally, statistical testing averaging across all timepoints was completed using a mixed-model repeated measures ANCOVA. The level of significance was set at 0.05.

The next test relates to mouse eyes. Kind of test: Outflow facility in enucleated mouse eyes (iPerfusion). In kind it is in vivo. The method, then:
An iPerfusion system was used to measure outflow facility in mice. The system is designed to measure outflow facility in paired mouse eyes having low flow rates (nL/min). Outflow facility is a measure of the ability of aqueous humor to flow from the trabecular meshwork to maintain a steady state TOP.
After three days of treatment with either Compound 1 or placebo, eyes were enucleated, and outflow facility was measured in a masked fashion. Briefly, mice were euthanized using isoflurane and freshly enucleated, paired mouse eyes were mounted on two stabilization platforms in temperature-controlled perfusion chambers by using a small amount of cyanoacrylate glue. […]
Both eyes of the mice were perfused at 9 mmHg for 45-60 min to allow acclimatization and to deliver the drug or vehicle to the outflow pathway, followed by 9 sequential pressure steps of 4.5, 6, 7.5, 9, 10.5, 12, 15, 18, and 21 mmHg. The outflow from the eye was measured at multiple pressures to calculate the outflow facility.
A non-linear flow-pressure model was used to account for the pressure dependence of outflow facility in mice. The reference facility was analyzed at a reference pressure of 8 mmHg, which approximates the physiological pressure drop across the conventional outflow pathway in living mice. […]

A further test deals with C57B16 mice. Kind of test: Schlemm's canal area in mice (PECAM-1 staining). To be noted: 4% eye drops (5 μL) BID for 4 weeks, 4-week old mice. It counts as in vivo, mouse. The method, then: Prior to application of eye drops, mice were anaesthetized using an isoflurane evaporator. Whole mounts of corneas were stained for PECAM-1 (FIG. 6A) and SC areas were measured (FIG. 6B). As depicted in FIG. 6A, 20× fields shown represent an area of […]. Images were captured as Z stacks with a step size of 0.89 μm and a pinhole of 1 airy unit, and are shown as maximum intensity projections. For quantification (FIG. 6B), SC area was measured in sixteen 20× images per condition for 4 eyes of 2 mice; *p≤0.05. Treatment with Compound 1 enhanced SC area by about 12.2% (±4.7%; p=0.022) with topical ocular Compound 1 treatment compared to vehicle.

Where [2] appears, read: week 12, listed as All Compound 1.
Where [3] appears, read: week 12, listed as Compound 1 + Sham.

Take `COC(=O)N[C@@H](Cc1ccccc1)C(=O)N[C@@H](Cc1ccc(NS(=O)(=O)O)cc1)c1csc(-c2cccs2)n1` [Compound 1, 4-{(S)-2-[(S)-2-(Methoxycarbonylamino)-3-phenylpropanamido]-2-[2-(thiophen-2-yl)thiazol-4-yl]ethyl}phenylsulfamic acid]: in test [1] (listed as All Compound 1), the “Week 4 subject-level IOP change from BL, mean (SD)” value is recorded as −1.2 (2.92) mmHg; the “Week 4 subject-level IOP, mean (SD)” value was 14.5 (2.92) mmHg; the “Week 8 subject-level IOP change from BL, mean (SD)” value is −1.3 (3.17) mmHg; the “Week 8 subject-level IOP, mean (SD)” value is recorded as 14.5 (3.31) mmHg. In test [1] (listed as Compound 1 + Sham), the “Week 4 subject-level IOP change from BL, mean (SD)” value was −0.8 (3.14) mmHg; the “Week 4 subject-level IOP, mean (SD)” value is listed as 14.7 (2.88) mmHg; the “Week 8 subject-level IOP change from BL, mean (SD)” value was −1.1 (3.25) mmHg; the “Week 8 subject-level IOP, mean (SD)” value is reported as 14.4 (3.26) mmHg. Further, in test [1] (setting [2]), the “Week 12 subject-level IOP change from BL, mean (SD)” value is −1.3 (2.93) mmHg and the “Week 12 subject-level IOP, mean (SD)” value is on record as 14.5 (3.31) mmHg. For the same molecule, in test [1] (setting [3]), the “Week 12 subject-level IOP change from BL, mean (SD)” value is recorded as −1.4 (2.98) mmHg and the “Week 12 subject-level IOP, mean (SD)” value was 14.1 (3.36) mmHg. In test [1] (fellow eye (FE)), the “Week 4 IOP change from BL, mean (SD)” value is −0.8 (3.36) mmHg and the “Week 8 IOP change from BL, mean (SD)” value is −1.1 (3.58) mmHg. In addition, in test [1] (fellow eye (FE), week 12), the “Week 12 IOP change from BL, mean (SD)” value is −1.4 (3.29) mmHg and the “Week 12 IOP, mean (SD)” value is given as 14.0 (3.41) mmHg. In addition, in test [1] (study eye (SE)), the “Week 4 IOP change from BL, mean (SD)” value is −0.8 (3.34) mmHg and the “Week 8 IOP change from BL, mean (SD)” value is given as −1.1 (3.37) mmHg. Also, the “Week 12 IOP change from BL, mean (SD)” value in test [1] (study eye (SE), week 12) is recorded as −1.4 (3.16) mmHg. The molecule also yielded an outflow facility in the test on mouse eyes (eyes dosed three days QD with 4% Compound 1, perfused with 10 μM, reference pressure 8 mmHg) of 3.4±0.4 nL/min/mmHg. Further, the “increase of outflow facility compared to control” value with mouse eyes (versus placebo-treated contralateral eyes) is on record as 33%. For the same molecule, the “enhancement of Schlemm's canal area compared to vehicle” value in the test with C57B16 mice was “about 12.2%”.

The values are drawn from patent US12064420B2, “Tie-2 activators targeting the Schlemm's canal” (EyePoint Pharmaceuticals, Inc., priority 2019, dated 2024).
